We go through nine compounds from ChEMBL document CHEMBL1697781, “Assessment of the health effects of chemicals in humans: II. Construction of an adverse effects database for QSAR modeling” (Curr Drug Discov Technol, 2004).

What all share (details): human
The subject of data set [1] is Hepatotoxicity. In words: FDA HLAED, liver enzyme composite activity.
In data set [2] the test system is Hepatotoxicity. Put plainly: FDA HLAED, alkaline phosphatase increase.
Data set [3] deals with Hepatotoxicity. In words: FDA HLAED, serum glutamic oxaloacetic transaminase (SGOT) increase.
Data set [4] concerns Hepatotoxicity. Put plainly: FDA HLAED, serum glutamic pyruvic transaminase (SGPT) increase.
The subject of data set [5] is Hepatotoxicity. Put plainly: FDA HLAED, lactate dehydrogenase (LDH) increase.
Data set [6] deals with Hepatotoxicity. Put plainly: FDA HLAED, gamma-glutamyl transferase (GGT) increase.
Throughout, for GGT Increase - Index Value: reference of the scale not given here.
Throughout, for LDH Increase - Index Value: reference of the scale not given here.

As for `CC1(C)O[C@@H]2[C@@H](CO[C@@]3(COS(N)(=O)=O)OC(C)(C)O[C@@H]23)O1` [TOPIRAMATE], in data set [1], the “Composite Activity - Active” value was found to be 0, the “Composite Activity - Marginal” value turned out to be 0 and the “Composite Activity - Score” value is “Inactive”. Also, in data set [2], the “Alkaline Phosphatase Increase - Activity Score” value is on record as “Inactive”, the “Alkaline Phosphatase Increase - Index Value” came to 3.5 and the “Alkaline Phosphatase Increase - Number of Reports” value is given as less than 4. Besides, in data set [3], the “SGOT Increase - Activity Score” value is listed as “Inactive”, the “SGOT Increase - Index Value” was determined as 0 and the “SGOT Increase - Number of Reports” value is on record as less than 4. Moreover, in data set [4], the “SGPT Increase - Activity Score” value is “Inactive”, the “SGPT Increase - Index Value” was determined as 0 and the “SGPT Increase - Number of Reports” value is recorded as less than 4. Besides, in data set [5], the “LDH Increase - Activity Score” value is given as “Inactive”, the “LDH Increase - Index Value” stood at 0 and the “LDH Increase - Number of Reports” value is listed as less than 4. In addition, in data set [6], the “GGT Increase - Activity Score” value was “Inactive”, the “GGT Increase - Index Value” was 0 and the “GGT Increase - Number of Reports” value was less than 4.
Turning to `CC[C@@]1(O)C(=O)OCc2c1cc1n(c2=O)Cc2cc3c(CN(C)C)c(O)ccc3nc2-1` [TOPOTECAN], in data set [1], the “Composite Activity - Active” value came out at 0, the “Composite Activity - Marginal” value was 0 and the “Composite Activity - Score” value was “Inactive”. Also, in data set [2], the “Alkaline Phosphatase Increase - Activity Score” value is on record as “Inactive”, the “Alkaline Phosphatase Increase - Index Value” is listed as 0 and the “Alkaline Phosphatase Increase - Number of Reports” value is given as less than 4. Besides, in data set [3], the “SGOT Increase - Activity Score” value is given as “Inactive”, the “SGOT Increase - Index Value” was found to be 0 and the “SGOT Increase - Number of Reports” value is less than 4. In data set [4], the “SGPT Increase - Activity Score” value was “Inactive”, the “SGPT Increase - Index Value” was 0 and the “SGPT Increase - Number of Reports” value is less than 4. In data set [5], the “LDH Increase - Activity Score” value was “Inactive”, the “LDH Increase - Index Value” came to 11.6 and the “LDH Increase - Number of Reports” value is reported as less than 4. In data set [6], the “GGT Increase - Activity Score” value is listed as “Inactive”, the “GGT Increase - Index Value” stood at 11.6 and the “GGT Increase - Number of Reports” value is reported as less than 4.
As to `Cc1cccc(Nc2ccncc2S(=O)(=O)NC(=O)NC(C)C)c1` [TORSEMIDE], in data set [1], the “Composite Activity - Active” value is 0, the “Composite Activity - Marginal” value came to 0 and the “Composite Activity - Score” value is on record as “Inactive”. In data set [2], the “Alkaline Phosphatase Increase - Activity Score” value is given as “Inactive”, the “Alkaline Phosphatase Increase - Index Value” came out at 0 and the “Alkaline Phosphatase Increase - Number of Reports” value is listed as less than 4. In addition, in data set [3], the “SGOT Increase - Activity Score” value is reported as “Inactive”, the “SGOT Increase - Index Value” is recorded as 0.5 and the “SGOT Increase - Number of Reports” value is given as less than 4. Further, in data set [4], the “SGPT Increase - Activity Score” value is “Inactive”, the “SGPT Increase - Index Value” is listed as 0.5 and the “SGPT Increase - Number of Reports” value is listed as less than 4. Further, in data set [5], the “LDH Increase - Activity Score” value was “Inactive”, the “LDH Increase - Index Value” is listed as 0 and the “LDH Increase - Number of Reports” value is listed as less than 4. In data set [6], the “GGT Increase - Activity Score” value is “Inactive”, the “GGT Increase - Index Value” came out at 0 and the “GGT Increase - Number of Reports” value is listed as less than 4.
For `COc1cccc(C2(O)CCCCC2CN(C)C)c1` (configuration not stated) [TRAMADOL], in data set [1], the “Composite Activity - Active” value is 0, the “Composite Activity - Marginal” value worked out at 0 and the “Composite Activity - Score” value is “Inactive”. Further, in data set [2], the “Alkaline Phosphatase Increase - Activity Score” value was “Inactive”, the “Alkaline Phosphatase Increase - Index Value” is recorded as 0.1 and the “Alkaline Phosphatase Increase - Number of Reports” value is given as less than 4. In data set [3], the “SGOT Increase - Activity Score” value is “Inactive”, the “SGOT Increase - Index Value” came out at 0.5 and the “SGOT Increase - Number of Reports” value is recorded as “>= 4”. Further, in data set [4], the “SGPT Increase - Activity Score” value was “Inactive”, the “SGPT Increase - Index Value” is given as 0.8 and the “SGPT Increase - Number of Reports” value is on record as “>= 4”. Moreover, in data set [5], the “LDH Increase - Activity Score” value is given as “Inactive”, the “LDH Increase - Index Value” was 0.6 and the “LDH Increase - Number of Reports” value is “>= 4”. Further, in data set [6], the “GGT Increase - Activity Score” value is “Inactive”, the “GGT Increase - Index Value” was determined as 0.2 and the “GGT Increase - Number of Reports” value is on record as less than 4.
For `CCOC(=O)[C@H](CCc1ccccc1)N[C@@H](C)C(=O)N1[C@H](C(=O)O)C[C@H]2CCCC[C@@H]21` [TRANDOLAPRIL], in data set [1], the “Composite Activity - Active” value was 1, the “Composite Activity - Marginal” value was found to be 0 and the “Composite Activity - Score” value is “Inactive”. Also, in data set [2], the “Alkaline Phosphatase Increase - Activity Score” value is reported as “Inactive”, the “Alkaline Phosphatase Increase - Index Value” was found to be 0 and the “Alkaline Phosphatase Increase - Number of Reports” value was less than 4. Besides, in data set [3], the “SGOT Increase - Activity Score” value was “Inactive”, the “SGOT Increase - Index Value” came to 7 and the “SGOT Increase - Number of Reports” value is given as less than 4. Moreover, in data set [4], the “SGPT Increase - Activity Score” value is “Marginally Active”, the “SGPT Increase - Index Value” stood at 10.5 and the “SGPT Increase - Number of Reports” value is less than 4. Moreover, in data set [5], the “LDH Increase - Activity Score” value is “Inactive”, the “LDH Increase - Index Value” worked out at 0 and the “LDH Increase - Number of Reports” value is on record as less than 4. In addition, in data set [6], the “GGT Increase - Activity Score” value is “Inactive”, the “GGT Increase - Index Value” is on record as 0 and the “GGT Increase - Number of Reports” value is less than 4.
On to `O=c1n(CCCN2CCN(c3cccc(Cl)c3)CC2)nc2ccccn12` [TRAZODONE], for which, in data set [1], the “Composite Activity - Active” value stood at 0, the “Composite Activity - Marginal” value amounted to 0 and the “Composite Activity - Score” value is listed as “Inactive”. Further, in data set [2], the “Alkaline Phosphatase Increase - Activity Score” value was “Inactive”, the “Alkaline Phosphatase Increase - Index Value” was determined as 0.2 and the “Alkaline Phosphatase Increase - Number of Reports” value is reported as less than 4. Further, in data set [3], the “SGOT Increase - Activity Score” value is “Inactive”, the “SGOT Increase - Index Value” is 0.3 and the “SGOT Increase - Number of Reports” value was less than 4. Also, in data set [4], the “SGPT Increase - Activity Score” value was “Inactive”, the “SGPT Increase - Index Value” turned out to be 0 and the “SGPT Increase - Number of Reports” value is less than 4. Besides, in data set [5], the “LDH Increase - Activity Score” value is reported as “Inactive”, the “LDH Increase - Index Value” was 0.3 and the “LDH Increase - Number of Reports” value is listed as less than 4. Further, in data set [6], the “GGT Increase - Activity Score” value is given as “Inactive”, the “GGT Increase - Index Value” came out at 0 and the “GGT Increase - Number of Reports” value was less than 4.
With `CC1=C(/C=C/C(C)=C/C=C/C(C)=C/C(=O)O)C(C)(C)CCC1` [TRETINOIN], in data set [1], the “Composite Activity - Active” value is given as 0, the “Composite Activity - Marginal” value stood at 0 and the “Composite Activity - Score” value is given as “Inactive”. Moreover, in data set [2], the “Alkaline Phosphatase Increase - Activity Score” value is given as “Inactive”, the “Alkaline Phosphatase Increase - Index Value” is 1 and the “Alkaline Phosphatase Increase - Number of Reports” value is on record as less than 4. Moreover, in data set [3], the “SGOT Increase - Activity Score” value is recorded as “Inactive”, the “SGOT Increase - Index Value” came to 0 and the “SGOT Increase - Number of Reports” value is given as less than 4. Besides, in data set [4], the “SGPT Increase - Activity Score” value is on record as “Inactive”, the “SGPT Increase - Index Value” is listed as 0 and the “SGPT Increase - Number of Reports” value is less than 4. Besides, in data set [5], the “LDH Increase - Activity Score” value is listed as “Inactive”, the “LDH Increase - Index Value” came to 1 and the “LDH Increase - Number of Reports” value is given as less than 4. Besides, in data set [6], the “GGT Increase - Activity Score” value is “Inactive”, the “GGT Increase - Index Value” was 1 and the “GGT Increase - Number of Reports” value is on record as less than 4.
For `Cc1nnc2n1-c1ccc(Cl)cc1C(c1ccccc1Cl)=NC2` [TRIAZOLAM], in data set [1], the “Composite Activity - Active” value came out at 0, the “Composite Activity - Marginal” value was 0 and the “Composite Activity - Score” value is recorded as “Inactive”. Also, in data set [2], the “Alkaline Phosphatase Increase - Activity Score” value is reported as “Inactive”, the “Alkaline Phosphatase Increase - Index Value” is on record as 0.4 and the “Alkaline Phosphatase Increase - Number of Reports” value is recorded as less than 4. In addition, in data set [3], the “SGOT Increase - Activity Score” value is reported as “Inactive”, the “SGOT Increase - Index Value” is on record as 0.3 and the “SGOT Increase - Number of Reports” value is on record as less than 4. Moreover, in data set [4], the “SGPT Increase - Activity Score” value is given as “Inactive”, the “SGPT Increase - Index Value” is on record as 0 and the “SGPT Increase - Number of Reports” value is on record as less than 4. Moreover, in data set [5], the “LDH Increase - Activity Score” value is on record as “Inactive”, the “LDH Increase - Index Value” came out at 0 and the “LDH Increase - Number of Reports” value is less than 4. For the same compound, in data set [6], the “GGT Increase - Activity Score” value is recorded as “Inactive”, the “GGT Increase - Index Value” amounted to 0 and the “GGT Increase - Number of Reports” value was less than 4.
For the compound `NCCNCCNCCN` [TRIENTINE], in data set [1] (Liver), the “Composite Activity - Active” value is 0, the “Composite Activity - Marginal” value is recorded as 0 and the “Composite Activity - Score” value is on record as “Inactive”. In data set [2], the “Alkaline Phosphatase Increase - Activity Score” value is on record as “Inactive”, the “Alkaline Phosphatase Increase - Index Value” was 0 and the “Alkaline Phosphatase Increase - Number of Reports” value is given as less than 4. Also, in data set [3], the “SGOT Increase - Activity Score” value is reported as “Inactive”, the “SGOT Increase - Index Value” turned out to be 69.4 and the “SGOT Increase - Number of Reports” value is less than 4. Also, in data set [4], the “SGPT Increase - Activity Score” value was “Inactive”, the “SGPT Increase - Index Value” was found to be 69.4 and the “SGPT Increase - Number of Reports” value is less than 4. Besides, in data set [5], the “LDH Increase - Activity Score” value is reported as “Inactive”, the “LDH Increase - Index Value” was determined as 0 and the “LDH Increase - Number of Reports” value is less than 4. Moreover, in data set [6], the “GGT Increase - Activity Score” value is on record as “Inactive”, the “GGT Increase - Index Value” was determined as 0 and the “GGT Increase - Number of Reports” value was less than 4.
